“And” between values parts separate entries of the source, which are not always exact repeats. Identical values can stand only once. Toxic doses and inconclusive results are not listed. No stated cut-off is given here; in the data, active means T/C of 150% or more; inactive means T/C below 125%.
Tested on: L1210 leukemia ip in BDF1 mice, survival T/C
Assay: NCI In Vivo Anticancer Drug Screen. Data for tumor model L1210 Leukemia (intraperitoneal) in B6D2F1 (BDF1) mice
Settings: endpoint: mean survival time, higher = longer survival
How it was run: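 Transplanted-tumor mice were given test agent; controls received vehicle only. Survival readings from the two groups were divided (treated over control).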

[1] = dose: 100.0 mg/kg/injection, schedule: Q01DX001 (ip), vehicle: saline
[2] = dose: 200.0 mg/kg/injection, schedule: Q01DX001 (ip), vehicle: saline
[3] = dose: 400.0 mg/kg/injection, schedule: Q01DX001 (ip), vehicle: saline
[4] = dose: 100.0 mg/kg/injection, schedule: Q04DX002 (ip), vehicle: saline
[5] = dose: 100.0 mg/kg/injection, schedule: Q01DX009 (ip), vehicle: Klucel (hydroxypropylcellulose) (HPC)
[6] = dose: 200.0 mg/kg/injection, schedule: Q01DX009 (ip), vehicle: Klucel (hydroxypropylcellulose) (HPC)
[7] = dose: 400.0 mg/kg/injection, schedule: Q01DX009 (ip), vehicle: Klucel (hydroxypropylcellulose) (HPC)
[8] = dose: 100.0 mg/kg/injection, schedule: Q04DX003 (ip), vehicle: Klucel (hydroxypropylcellulose) (HPC)
[9] = dose: 200.0 mg/kg/injection, schedule: Q04DX003 (ip), vehicle: Klucel (hydroxypropylcellulose) (HPC)
[10] = dose: 400.0 mg/kg/injection, schedule: Q04DX003 (ip), vehicle: Klucel (hydroxypropylcellulose) (HPC)
[11] = dose: 100.0 mg/kg/injection, schedule: Q01DX001 (ip), vehicle: carboxymethylcellulose (CMC)
[12] = dose: 200.0 mg/kg/injection, schedule: Q01DX001 (ip), vehicle: carboxymethylcellulose (CMC)
[13] = dose: 400.0 mg/kg/injection, schedule: Q01DX001 (ip), vehicle: carboxymethylcellulose (CMC)
[14] = dose: 100.0 mg/kg/injection, schedule: Q04DX003 (ip), vehicle: other
[15] = dose: 200.0 mg/kg/injection, schedule: Q04DX003 (ip), vehicle: other
[16] = dose: 400.0 mg/kg/injection, schedule: Q04DX003 (ip), vehicle: other
[17] = dose: 100.0 mg/kg/injection, schedule: Q04DX003 (ip), vehicle: saline
[18] = dose: 200.0 mg/kg/injection, schedule: Q04DX003 (ip), vehicle: saline

Measured: T/C

Cc1cc(=O)[nH]c(=O)n1Cc1ccccc1
inactive: dose: 100.0 mg/kg/injection, schedule: Q01DX001 (ip), vehicle: Klucel (hydroxypropylcellulose) (HPC) 117 % of control | dose: 200.0 mg/kg/injection, schedule: Q01DX001 (ip), vehicle: Klucel (hydroxypropylcellulose) (HPC) 117 % of control | dose: 400.0 mg/kg/injection, schedule: Q01DX001 (ip), vehicle: Klucel (hydroxypropylcellulose) (HPC) 122 % of control

O=P(Nc1ccccc1)(Nc1ccccc1)Nc1ccccc1
inactive: dose: 50.0 mg/kg/injection, schedule: Q04DX002 (ip), vehicle: gum acacia 95 % of control | dose: 100.0 mg/kg/injection, schedule: Q01DX009 (ip), vehicle: gum acacia 100 % of control | dose: 100.0 mg/kg/injection, schedule: Q04DX002 (ip), vehicle: gum acacia 95 % of control | dose: 200.0 mg/kg/injection, schedule: Q01DX009 (ip), vehicle: gum acacia 97 % of control | dose: 200.0 mg/kg/injection, schedule: Q04DX002 (ip), vehicle: gum acacia 92 % of control | dose: 400.0 mg/kg/injection, schedule: Q01DX009 (ip), vehicle: gum acacia 89 % of control

CN(C)N=Nc1ccc(Cl)cc1
inactive: dose: 37.5 mg/kg/injection, schedule: Q04DX003 (ip), vehicle: saline with Tween-80 96 % of control | dose: 50.0 mg/kg/injection, schedule: Q01DX001 (ip), vehicle: saline with Tween-80 106 % of control | dose: 50.0 mg/kg/injection, schedule: Q01DX009 (ip), vehicle: saline with Tween-80 86 % of control | dose: 75.0 mg/kg/injection, schedule: Q04DX003 (ip), vehicle: saline with Tween-80 97 % of control | dose: 100.0 mg/kg/injection, schedule: Q01DX001 (ip), vehicle: saline with Tween-80 104 % of control | [1] 103 % of control | dose: 100.0 mg/kg/injection, schedule: Q01DX009 (ip), vehicle: saline with Tween-80 87 % of control | dose: 150.0 mg/kg/injection, schedule: Q04DX003 (ip), vehicle: saline with Tween-80 104 % of control | dose: 200.0 mg/kg/injection, schedule: Q01DX001 (ip), vehicle: saline with Tween-80 113 % of control | [2] 107 % of control | dose: 200.0 mg/kg/injection, schedule: Q01DX009 (ip), vehicle: saline with Tween-80 90 % of control | dose: 300.0 mg/kg/injection, schedule: Q04DX003 (ip), vehicle: saline with Tween-80 108 % of control | [3] 97 % of control | dose: 400.0 mg/kg/injection, schedule: Q01DX009 (ip), vehicle: saline with Tween-80 91 % of control

COC(=O)CCC(=O)Nc1ccccc1
inactive: dose: 100.0 mg/kg/injection, schedule: Q04DX003 (ip), vehicle: saline with Tween-80 101 % of control | dose: 200.0 mg/kg/injection, schedule: Q04DX003 (ip), vehicle: saline with Tween-80 95 % of control | dose: 400.0 mg/kg/injection, schedule: Q04DX003 (ip), vehicle: saline with Tween-80 95 % of control

CN(Cc1ccccc1O)C1CC2CCC1(C)C2(C)C (stereo not drawn)
inactive: dose: 50.0 mg/kg/injection, schedule: Q04DX002 (ip), vehicle: saline 97 % of control | [4] 101 % of control

Cc1ccc(CSCc2ccc(C)cc2)cc1
inactive: [5] 100 % of control | [6] 96 % of control | [7] 92 % of control

c1ccc(C(CCCCC(c2ccccc2)c2ccccc2)c2ccccc2)cc1
inactive: dose: 75.0 mg/kg/injection, schedule: Q01DX001 (ip), vehicle: saline 94 % of control | dose: 150.0 mg/kg/injection, schedule: Q01DX001 (ip), vehicle: saline 92 % of control | dose: 300.0 mg/kg/injection, schedule: Q01DX001 (ip), vehicle: saline 93 % of control

Cc1cc(N=Nc2ccc(N(C)C)cc2)ccn1
inactive: [8] 101 % of control | [9] 102 % of control | [10] 91 % of control

CCC(=O)N(CC)CC
inactive: dose: 50.0 mg/kg/injection, schedule: Q01DX001 (ip), vehicle: saline 102 % of control | [1] 93 % of control | [3] 93 % of control

C/C(CC(C)C)=N/O
inactive: [1] 95 % of control | [2] 97 % of control | [3] 92 % of control

CC(=O)Nc1nc(SCc2ccccc2)c2c(no[n+]2[O-])n1
inactive: dose: 100.0 mg/kg/injection, schedule: Q04DX002 (ip), vehicle: saline with Tween-80 97 % of control | dose: 200.0 mg/kg/injection, schedule: Q04DX002 (ip), vehicle: saline with Tween-80 116 % of control

C=CCOc1ccccc1OCC=C
inactive: [11] 107 % of control | [12] 102 % of control | [13] 100 % of control

COc1ccc(NC2=CC(=O)N(c3ccc(OC)cc3)C2=O)cc1
inactive: [14] 86 % of control | [15] 98 % of control | [16] 98 % of control

Cc1ccc(N=Nc2cc(C)c(N)cc2N)c(S(=O)(=O)O)c1
inactive: [14] 96 % of control | [15] 105 % of control | [16] 103 % of control

O=C1C=C(O)c2ccc(=O)[nH]c2C1=O
inactive: [1] 95 % of control | [2] 98 % of control

CC(=O)N(C)c1ccccc1
inactive: [4] 99 % of control

CCN(c1ccccc1)c1ccc(C=O)cc1
inactive: [5] 98 % of control | [8] 97 % of control | [6] 94 % of control | [9] 102 % of control | [7] 93 % of control | [10] 105 % of control

Cc1ccc(S(=O)(=O)NN=C(C2=CCCCC2)C2=CCCCC2)cc1
inactive: [17] 94 % of control | [18] 93 % of control | dose: 400.0 mg/kg/injection, schedule: Q04DX003 (ip), vehicle: saline 93 % of control

O=[N+]([O-])c1ccc(S(=O)(=O)C2CCCCC2Cl)c([N+](=O)[O-])c1 (stereo not drawn)
inactive: dose: 50.0 mg/kg/injection, schedule: Q01DX001 (ip), vehicle: carboxymethylcellulose (CMC) 95 % of control | [11] 111 % of control | [12] 106 % of control | [13] 101 % of control

NC(=O)c1cn(C2OC(CO)C(O)C2O)c2nc(Cl)nc(N)c12 (stereo not drawn)
inactive: dose: 3.12 mg/kg/injection, schedule: Q01DX009 (ip), vehicle: saline 96 % of control | dose: 6.25 mg/kg/injection, schedule: Q01DX009 (ip), vehicle: saline 106 % of control | dose: 12.5 mg/kg/injection, schedule: Q01DX009 (ip), vehicle: saline 101 % of control | dose: 25.0 mg/kg/injection, schedule: Q01DX009 (ip), vehicle: saline 106 % of control | [18] 115 % of control

CS(=O)c1ncc2cnccn12 (stereo not drawn)
inactive: dose: 25.0 mg/kg/injection, schedule: Q01DX009 (ip), vehicle: water 100 % of control | dose: 25.0 mg/kg/injection, schedule: Q04DX003 (ip), vehicle: saline 107 % of control | dose: 50.0 mg/kg/injection, schedule: Q01DX009 (ip), vehicle: water 99 % of control | dose: 50.0 mg/kg/injection, schedule: Q04DX003 (ip), vehicle: saline 113 % of control | dose: 100.0 mg/kg/injection, schedule: Q01DX009 (ip), vehicle: water 102 % of control and 103 % of control | [17] 107 % of control | dose: 100.0 mg/kg/injection, schedule: Q04DX003 (ip), vehicle: water 110 % of control | dose: 200.0 mg/kg/injection, schedule: Q01DX009 (ip), vehicle: water 98 % of control

Source: PubChem BioAssay AID248 (DTP/NCI, 2004)
